Patent US5336485A, “Method for protecting animals against tacrine induced cytotoxic injury using sterol compounds” (priority 1993, dated 1994)
Structures can show the parent of a compound that is named as a salt.

Tests used:
[1] = system: liver; test: Partial liver ischemia/reperfusion-induced injury in rats; assay type: in vivo, rat
Procedure: 20 hours prior to global occlusion, one group of 10 rats was provided with 64 mg cholesterol/kg body weight and 100 mg tris succinate/kg body weight by i.p. injection, and another group of 10 rats was provided with 100 mg cholesteryl succinate/kg body weight. A control group of rats was only partially occluded for the one hour period. Ninety percent of the rats pretreated with cholesteryl succinate tris salt survived while only 10% of those pretreated with the combination of cholesterol and tris succinate survived. Table 22 of a partial ischemia study where male Sprague-Dawley rats were subjected to occlusion of the blood supply to the left lateral and median lobes of the liver for 60 minutes followed by reperfusion for 24 hours. During this time, the normal blood supply to the other lobes of the liver was maintained. […] Serum was obtained for AST and ALT measurements.
^a Partial liver ischemia was induced in male Sprague Dawley rats

[2] = system: rat hepatocytes; test: Cytotoxicity of various toxic insults (A23187, cadmium, O2, doxorubicin, CCl4, hypoxia) in rat hepatocytes; assay type: cell-based
Procedure: (§1) Only viable cells were monitored in the laboratory procedures.
(§2) In vitro experiments were performed to determine if alpha-TS could protect cells from different toxic insults. Under physiological conditions, rat hepatocytes were incubated with medium containing 25 μM alpha-TS. The hepatocytes were exposed to EMS, a potent mutagen and alkylating agent; the ionophore A23187, a membrane active compound that permits the equilibration of divalent cations across cell membranes; cadmium, a heavy metal, environmental contaminant, and known carcinogen who's mechanism of toxicity remains unknown; 95% O2, an excessive oxygen insult that produces an abundance of toxic oxygen free radicals and reactive oxygen intermediates in the cell; doxorubicin (adriamycin), a clinically important antitumor agent with cytotoxic effects proposed to result from its metabolic activation and the generation or reactive oxygen species; carbon tetrachloride (CCl4); and hypoxia (an absence of oxygen followed by reoxygenation).

[3] = as above; assay type: cell-based; details: rat, hepatocytes; Control (vehicle only, no insult), 25 μM alpha-TS; read-out: % Cell Death
Procedure: as §1, §2

[4] = system: skin lesion; test: Topical treatment of dermal injury in a human; assay type: in vivo
Procedure: In one case, the middle knuckle of the left hand of a person was injured by the removal of a small wart with liquid nitrogen. Two months following the liquid nitrogen insult, the injured area (approximately 1 cm in diameter) was characterized by scar tissue raised several millimeters above the surrounding normal skin. At this time, the lesion was treated by wetting the injured area with alpha-TS dissolved in dimethyl sulfoxide (100mg/ml), daily for a period of two weeks. […] One year following the last alpha-TS treatment, the once injured area remains indistinguishable from the surrounding normal tissue. In another case, a person's lip was severely sunburned. Topical lip cremes and antibiotic cremes were used for several weeks following the ultraviolet insult with minimal therapeutic benefit. At this time, the lesion was treated by wetting the injured area with alpha-TS dissolved in dimethyl sulfoxide (100mg/ml) daily for a period of 1 week. […] In another case, the arch of the left foot of a person was inflamed and blistered from contact dermatitis or stress dermatitis. Six months after unsuccessful treatment on this lesion with betamethasone, the injured area was treated by wetting the injured area with alpha-TS dissolved in dimethyl sulfoxide (100 mg/ml) twice daily for a period of 1 week. […] It is also evident from these cases that alpha-TS is the active component that promotes wound healing and prevents scar formation.

[5] = system: CDF1 mice; test: Doxorubicin lethality in CDF1 mice (normal tissue); assay type: in vivo, mouse; details: 100 mg/kg ip 20 h prior, DOX 10, 15, 20, 25 mg/kg
Procedure: The experiments were conducted in accordance with NCI Protocol 1,100. FIGS. 8a-d show the experimental results obtained when male CDF1 mice (n=6) received either vehicle only or 100mg/kg body weight i.p. dose of either alpha-TS or cholesteryl succinate 20 hours prior to DOX administration. FIGS. 8a-d respectively show the results obtained when the mice received 10, 15, 20, and 25 mg DOX/kg body weight. […] FIGS. 9a-d show the experimental results obtained when male CDF1 mice ([…]) were injected (i.p.) with 10^6 murine L1210 leukemia cells followed immediately by an injection of alpha-TS tris salt (100 mg/kg, i.p.) or saline injection (vehicle), and twenty hours later (Day=0) each mouse in three of the groups was i.p. injected with 15, 20, or 25 mg DOX/kg body weight ([…]). Survival was monitored for twenty days.

[6] = system: rat hepatocytes; test: Intracellular K+ of rat hepatocytes exposed to EMS; assay type: cell-based
Excerpt: Medzhradsky, Biochem. Med. 13:164 (1975), has noted that the cell's ability to maintain its intracellular concentration of potassium (K^+) is an excellent indicator of the metabolic integrity of the cell. A concentration gradient exists for K^+ with greater concentrations found intracellularly. To maintain this gradient, the cell is dependent on the action of the Na^+ -K^+ ATPase pump and an adequate supply of ATP. As cellular ATP levels decline, the ATPase pump is unable to maintain the gradient resulting in the loss of intracellular K^+ by equilibration with the extracellular space. Because the maintenance of cellular metabolic processes is essential to the continual repair and survival of cells, organ systems, and organisms, the effect of alpha-TS on the metabolic integrity of rat liver cells during a toxic insult was investigated by measuring intracellular K^+ levels. […] At each time-point, rapid separation of viable from non-viable hepatocytes and medium was accomplished by the dibutyl phthalate centrifugation method. Cell viability was monitored hourly by measuring LDH leakage with a Cobas Analyzer and intracellular [K^+ ]with a flame photometer. […] Lipid peroxidation was determined by measuring TBA reactants in the medium. […] Alltech, Avondale, Pa.). […] Following the addition of 0.2 ml 4 M HC1, the neutralized KOH-MeOH extracted with 0.8 ml hexane. […] A standard curve for each tocopherol congener was run with every assay. […] Only viable cells were monitored in the laboratory procedures.

[7] = Blood alpha-TS content after oral dosing in humans; assay type: in vivo, human; details: 400 units per day, one month, three males
Excerpt: In a one month study with three human males aging from 35 to 62 years 400 units of alpha-tocopheryl succinate were taken per day. Subsequent blood samples were taken from each individual and analyzed for alpha-T and alpha-TS content. […] However, in select individuals, as determined possibly by ethnic origin or diet, tissue alpha-TS accumulation can occur with oral dosing. The absence of alpha-TS hydrolysis in the gut of the one individual in the study who had substantial amounts of alpha-TS in plasma may be attributed to the absence of duodenal secretions after oral alpha-TS administration (lack of dietary fats to stimulate duodenal secretions at the time of alpha-TS administration).

[8] = 100 mg/kg ip, 20 hours prior to ischemia

## CC(C)CCC[C@@H](C)[C@H]1CC[C@H]2[C@@H]3CC=C4C[C@@H](OC(=O)CCC(=O)O)CC[C@]4(C)[C@H]3CC[C@]12C [Cholesteryl Succinate tris salt]
[1]; 25 mg/kg ip, vehicle 1027±235
  ALT: 358±38
[1]; [8]
  ALT: 554 ± 213 Units/L
  AST: 1800 ± 904 Units/L
[1]; 100 mg/kg ip, during ischemia
  ALT: 387 ± 155 Units/L
  AST: 967 ± 68 Units/L
[1]; rat, in vivo
  protection in fed and fasted rats: Protection was observed for both fed and fasted rats

## Cc1c(C)c2c(c(C)c1OC(=O)CCC(=O)O)CC[C@@](C)(CCC[C@H](C)CCC[C@H](C)CCCC(C)C)O2 [alpha-TS, d-alpha-tocopheryl succinate]
[2]; 95% Oxygen, 25 μM alpha-TS (no alpha-TS 57)
  % Cell Death: 23%
[2]; CCl4 2.5 mM, 25 μM alpha-TS (no alpha-TS 63)
  % Cell Death: 38%
[2]; Cadmium 0.1 mM, 25 μM alpha-TS (no alpha-TS 70)
  % Cell Death: 24%
[2]; Doxorubicin 100 μM, 25 μM alpha-TS (no alpha-TS 62)
  % Cell Death: 28%
[2]; Hypoxia 4 hrs N2 and 2 hrs O2, 25 μM alpha-TS (no alpha-TS 70)
  % Cell Death: 49%
[2]; Ionophore A23187 5 μM, 25 μM alpha-TS (no alpha-TS 73)
  % Cell Death: 24%
[2]; rat hepatocytes, 25 μM, 5 μM A23187
  protection from lethal effects of ionophore A23187: protected rat hepatocytes from the lethal effects
[3]
  cytotoxicity at 25 µM: 21%
[4]; topical 100 mg/ml in DMSO daily, 1 week
  healing of sunburned lip: rapid healing of the lip without scar formation
[4]; topical 100 mg/ml in DMSO daily, two weeks
  healing of injured area (liquid nitrogen): rapid healing of the injured area with the elimination of scar tissue
[4]; topical 100 mg/ml in DMSO twice daily, 1 week
  healing of foot lesion (dermatitis): rapid healing of the foot lesion with the dissolution of both inflammation and blisters
[5]
  survival after DOX, normal mice (FIGS. 8a-d): survived significantly longer
[6]; 50 mM EMS + 25 μM alpha-TS
  % Initial Intracellular [K+]: 93 ± 11 % Initial
[6]; 50 mM EMS + 25 μM alpha-TS + 100 μM Bis-(p-nitrophenyl) phosphate
  % Initial Intracellular [K+]: 14 ± 6 % Initial
[6]; 50 mM EMS + 25 μM alpha-TS + 100 μM Diethyl p-nitrophenyl phosphate
  % Initial Intracellular [K+]: 26 ± 2 % Initial
[6]; 50 mM EMS, 5 Hrs, concentrations as cell death (Table 15)
  % Initial Intracellular [K+]: 86 ± 6 % Initial
[6]; rat hepatocytes, 25 μM, 50 mM EMS
  intracellular K+ during EMS insult: no loss of intracellular K+
[7]
  alpha-TS in plasma and erythrocytes: Substantial amounts of alpha-TS in plasma and erythrocytes were observed for only one individual
